Test results taken from patent US9689042B2, “Use of glycolytic pathways for inhibiting or measuring oncogenic signaling” (The Regents of the University of California, priority 2012, dated 2017).
Entries after “also recorded” stand apart in the source; their conditions may differ.

Legend:
T4-2 cells [1] = settings: T4-2 cells, 3D lrECM; for phenotypic reversion of the malignant phenotype: 2DG 4 mM, IA 20 μM, OX 50 mM, Azs 20 μM, DON 20 μM, BADGP 5 mM, TM 10 ng/ml, OGM 4 ng/ml, Rapa 0.01-1.0 μM
Protocol: HMT-3522 cells were cultured on tissue culture plastic (2D) and in 3D lrECM gels with H14 medium, a 1:1 mix of DMEM/F12 (UCSF Cell Culture Facility) supplemented with 250 ng/ml insulin, 10 μg/ml transferrin, 2.6 ng/ml sodium selenite, 0.1 nM β-estradiol, 1.4 μM hydrocortisone and 5 μg/ml prolactin but no serum. S1 cells were additionally supplemented with 10 ng/ml EGF. MDA-MB-231 and HCC70 cells were cultured in DMEM and RPMI1640, respectively, and were supplemented with 10% fetal bovine serum (FBS).
For 3D lrECM cultures, S1 and T4-2 cells were seeded at 840,000 and 600,000 cells per cm3 respectively in lrECM gel (Cultrex), overlaid with H14 medium. MDA-MB-231 and HCC70 cells were seeded at 625,000 cell per cm3 and overlaid with H14 medium supplemented with 1% FBS. Cells were used for each assay after 10 days, unless otherwise indicated.
Pieces of lrECM gel containing cell colonies were suspended in approximately the same volume of phosphate buffered saline (PBS) and directly spread on glass slides. After brief air-drying, colonies were fixed with 3.7% paraformaldehyde (PFA) in PBS at room temperature (RT) for 10 min, washed with PBS containing 0.1 mM glycine, and permeabilized with 1:1 methanol/acetone at −20° C. for 10 min. After blocking with IF buffer (0.2% Triton X-100, 0.1% BSA [radioimmunoassay grade], 0.05% Tween 20, 7.7 mM NaN3 in PBS) containing 10% goat serum and 1% goat F(ab′)2 anti-mouse immunoglobulin G (IgG; Caltag) at RT for 30 min, colonies were stained with anti-α6 integrin antibody (Chemicon International) at 4° C. overnight. Colonies were washed extensively with IF buffer, and stained with Alexa 568-labeled anti-rat IgG antibody at RT for 2 hr. Colonies were washed with IF buffer again, and nuclei were stained with DAPI at RT for 10 min. Slides were briefly washed with PBS and mounted with 50% glycerol in PBS.
To test whether increased glucose metabolism itself is required for oncogenic signaling events, we utilized 3D lrECM cultures of HMT-3522, a breast cancer progression series which includes non-malignant (S1) and malignant (T4-2) human breast epithelial cells from the same individual (Briand et al., 1987; Petersen et al., 1992; Rizki et al., 2008). Using these cells, we have described the involvement and reciprocity of multiple signaling pathways including EGFR, β1 integrin, PI3K-Akt and MEK-ERK in oncogenic events (Beliveau et al., 2010; Bissell et al., 2005). […] We thus used this “phenotypic reversion” of the cancer cells as an assay to examine how the signaling integration plan of the breast acini could involve glucose metabolism.

[2] = test system: EGFR, β1 integrin, Akt, MEK, GLUT3, glycolytic enzymes in T4-2 cells; experiment: Western blots of signaling intermediates, GLUT3 and metabolic enzymes in 3D lrECM cultures of T4-2 cells; assay type: cell-based, human; settings: T4-2 cells, 3D lrECM
Protocol: (§1) Cell colonies were separated from lrECM gels by shaking in PBS containing 5 mM EDTA and the proteinase inhibitor cocktail set I (Calbiochem) on ice for 30 min. Cells were lysed in lysis buffer (1% NP-40, 1% deoxycholate, 2% SDS, 150 mM NaCl, 20 mM Tris-HCl [pH 7.4] plus 5 mM EDTA and protease inhibitor cocktail set I and phosphatase inhibitor cocktail set I [Calbiochem]) and sonicated three times for 30 sec each. Proteins were separated by SDS-PAGE, transferred to nitrocellulose membranes, and probed with antibodies against the following proteins: phosphorylated MEK, MEK, phosphorylated Akt, Akt, phosphorylated AMPK, AMPK, p70S6K, phosphorylated p70S6K, CHOP, EPAC1 (Cell Signaling), β1 integrin, EGFR, activated EGFR, HIF-1α, (Chemicon International), PFKP (Abgent), GAPDH, GLUT3 (GeneTex), LDHA, PDHE1α, DLAT, DLD, HIF-3α, Rap1, sAC, EPAC2, OGT, Lamin A/C (Santa Cruz Biotechnology), Aldolase (Polysciences), GFPT (ProteinTech Group), HIF-2α (Abcam), and HA-tag (Covance). After probing with HRP-conjugated secondary antibodies, blots were developed using SuperSignal West Femto chemiluminescence reagent (Pierce Biotechnology). Images were captured using Fluor Chem 8900 imager (Alpha Innotech).

Rap1 = experiment: Measurement of Rap1 activity (GST-RalGDS-RBD pull-down) in T4-2 cells; assay type: cell-based, human; settings: T4-2 cells, 3D lrECM, IA 20 μM
Protocol: Rap1 activity was measured as described previously (Itoh et al., 2007). Briefly, cell colonies were extracted from lrECM as described above, and lysed in lysis buffer (50 mM Tris-HCl [pH 7.4], 500 mM NaCl, 1% NP40, 2.5 mM MgCl2, 10% glycerol, 10 μg/ml aprotinin and 10 μg/ml leupeptin) at 4° C. for 30 min. Lysates were cleared by centrifugation at 15,000×g at 4° C. for 15 min. Supernatants (containing 300 μg protein in 300 μl) were incubated with 15 μg of GST-tagged RalGDS-RBD fusion protein immobilized on Glutathione Sepharose 4B beads (GE Healthcare), at 4° C. for 1 hr. Beads were washed trice in lysis buffer and resuspended in Laemmli buffer. Samples were separated by SDS-PAGE, followed by transfer to polyvinylidene fluoride membranes (0.2 μm pore) and immunoblotting using anti-Rap1 antibody.

HCC70 cells = experiment: 3D lrECM culture of HCC70 cells; assay type: cell-based, human; settings: IA 2 μM, DON 20 μM
MDA-MB-231 cells [3] = experiment: 3D lrECM culture of MDA-MB-231 cells; assay type: cell-based, human; settings: IA 40 μM, DON 20 μM
MDA-MB-231 cells [4] = experiment: In vitro invasive activity (Matrigel invasion chamber); assay type: cell-based, human; settings: IA 40 μM, DON 20 μM, 17.5 mM glucose, 16 hours
Protocol: Invasive activity was examined using BD Biocoat GFR (growth factor reduced) Matrigel invasion chamber (BD Biosciences). Before the assay, lower surface of the membrane of the upper chamber was coated with collagen type I (10 μg/ml). MDA-MB-231 cells cultured on 2D plastic for two days with H14 medium containing different concentrations of glucose (17.5, 1.75 or 0 mM) or supplemented with metabolic inhibitors (40 μM IA or 20 μM DON, with 17.5 mM glucose) were detached by trypsinization, and 25,000 cells in each condition were seeded on the upper chambers. Both upper and lower chambers were filled with medium of the same formulations as that in each 2D culture. After 16 hours, cells were fixed with 4% PFA in PBS and stained with crystal violet.

[5] = test system: signaling intermediates in MDA-MB-231 cells; experiment: Western blots of signaling intermediates in MDA-MB-231 cells; assay type: cell-based, human; settings: IA 40 μM, DON 20 μM
Protocol: as §1

T4-2 cells [6] = experiment: Glucose uptake assay (IRDye800CW-2DG) in 3D lrECM; assay type: cell-based, human
Protocol: (§2) Cells suspended in 200 μl lrECM were seeded in 12 well glass-bottom plates (14 mm diameter; MatTek Corporation). Gels were overlaid with 500 μl H14 media and cultured for 10 days before each assay unless otherwise described.
For glucose uptake assay, cells were incubated with 1 μM of IRDye800CW-2DG (LI-COR Biosciences) for 1 hour, fixed within gels with 4% paraformaldehyde (PFA) in PBS for 30 min. and stained with DRAQ5 (1:10000 dilution), an infrared dye that binds stoichiometrically to DNA, for 30 min. Cells were extensively washed with PBS, then IRDye800-2DG uptake together with DRAQ5 staining were measured by using Odyssey Infrared Imaging System (LI-COR Biosciences).
(§3) In each assay, one well, containing only lrECM, was made for background measurements. Glucose uptake measured by 2DG uptake, lactate production and MitoTracker staining were normalized using total DNA levels, and presented relative to that of control (either S1 or non-treated T4-2 cells).

T4-2 cells [7] = experiment: Lactate production assay in 3D lrECM; assay type: cell-based, human
Protocol: as §2
For lactate production, on day 9, conditioned-media were harvested to measure lactate remaining in the 200 μl of the gel (assuming equilibrium between medium and gel, C0 nmol/μl). […] After 24 hours, total culture medium was harvested for measurement of final lactate concentrations (C nmol/μl) and total volumes (V μl) of the conditioned-media, and the cells in gel were fixed with PFA as above. Concentration of lactate in each sample was measured using a lactate assay kit (BioVision). Net lactate production within 24 hours (N) was calculated as follows: N=C×(V+200)−C0×200. Fixed cells were stained with DRAQ5, to measure total level of DNA as a surrogate for number of cells, and the staining was measured as above.
as §3

T4-2 cells [8] = experiment: Mitochondrial activity (MitoTracker oxidation) assay in 3D lrECM; assay type: cell-based, human
Protocol: as §2
For mitochondrial activity, we slightly modified the method described previously (Morici et al., 2007). Briefly, cells were incubated with 2 μM MitoTracker® Orange CM-H2 TMRos (Invitrogen) for 1 hour and fixed with PFA as above. Cells were counterstained with Hoechst 33342 (Invitrogen), which is known also to bind to DNA stoichiometrically, then MitoTracker and Hoechst staining were measured by taking z-section images from top to bottom of the gels using confocal microscopy.
as §3

[9] = same inhibitor concentrations as E1

Row | SMILES | phenotypic reversion of the malignant phenotype (T4-2 cells [1]) | EGFR and MEK ([2]; basal medium 17.5 mM glucose, IA 20 μM, OX 50 mM) | Rap1 activity (Rap1) | reversion phenotype (HCC70 cells) | altered phenotype (MDA-MB-231 cells [3]) | proliferation (total cell numbers) (MDA-MB-231 cells [3]) | invasive property (MDA-MB-231 cells [4]) | other signaling activities [5] | basal polarity / organized acinar structures (T4-2 cells [1]; [9]) | growth / proliferation (cell numbers at the colony mid-section, EdU incorporation) (T4-2 cells [1]; [9]) | levels and/or activities of EGFR, β1 integrin, Akt and MEK (oncogenic signaling) ([2]; Western blot) | EGFR expression and activity ([2]; Azs 20 μM, DON 20 μM) | glucose uptake (T4-2 cells [6]) | lactate production (T4-2 cells [7]) | mitochondrial activity (oxidation) (T4-2 cells [8])
1 | O=C(O)CI [IA, Iodoacetate] | do induce phenotypic reversion | not affected appreciably | down-regulation of Rap1 activity without a change in its total protein level | reversion phenotype was similar to that in T4-2 cells | incomplete but still significant | appreciable decrease | appreciable decrease | appreciable decrease | – | – | – | – | – | – | –
2 | [N-]=[N+]=CC(=O)CC[C@H](N)C(=O)O [DON, 6-diazo-5-oxonorleucine] | do induce phenotypic reversion; also recorded: induced the repertoire of the reversion phenotype | – | – | reversion phenotype was similar to that in T4-2 cells | incomplete but still significant | appreciable decrease | appreciable decrease | appreciable decrease | re-establishment of tissue polarity | growth arrest | suppression of activation of oncogenic signaling | significantly down-regulated | significantly down-regulated | significantly down-regulated | remained unaltered
